Test results as given in patent US5721234A, “Glutamate receptor antagonists: fused cycloalkylouinoxalinediones” (Warner-Lambert Company, priority 1995, dated 1998).

How the values were obtained:
[1] = target: AMPA receptors; assay: AMPA receptor binding affinity (Honore et al.)
[2] = target: T1, glycine site of the NMDA receptor (Rattus norvegicus, UniProt P35439); assay: Glycine site of the NMDA receptor binding affinity (Jones et al.)
T1 construct: from tissue

[3] = target: kainate site (non-NMDA receptor); assay: Kainate site (non-NMDA receptor) binding affinity (London and Coyle)
[4] = Table 1, cyclohexyl-fused analogs
[5] = Table 2, cyclopentyl-fused analogs

Row | Structure (SMILES) | IC50 [1, 4] | IC50 [2, 4] | IC50 [3, 4] | IC50 [1, 5] | IC50 [2, 5] | IC50 [3, 5]
1 | O=C(Nc1ccccc1)NC1CCc2c([N+](=O)[O-])cc3[nH]c(=O)c(=O)[nH]c3c2C1 (stereo not shown) [Example 42, N-phenyl-N'-(6-nitro-2,3-dioxo-1,2,3,4,7,8,9,10-octahydrobenzo[f]quinoxalin-9-yl)urea] | 0.15 µM | 0.18 µM | 0.83 µM |  |  | 
2 | CC(=O)NC1Cc2c([N+](=O)[O-])cc3[nH]c(=O)c(=O)[nH]c3c2C1 (stereo not shown) [Example 32, N-(6-nitro-2,3-dioxo-2,3,4,7,8,9-hexahydro-1H-cyclopenta[f]quinoxalin-8-yl)-acetamide] |  |  |  | 0.4 µM | 1.3 µM | 0.9 µM
3 | O=c1[nH]c2cc(Br)c3c(c2[nH]c1=O)CC(O)CC3 (stereo not shown) [Example 7, 6-bromo-9-hydroxy-1,4,7,8,9,10-hexahydro-benzo[f]quinoxaline-2,3-dione] | 17 µM | 1.5 µM | 3 µM |  |  | 
4 | CN(C(=O)C1Cc2c([N+](=O)[O-])cc3[nH]c(=O)c(=O)[nH]c3c2C1)c1ccccc1 (stereo not shown) [Example 69, 6-Nitro-2,3-dioxo-2,3,4,7,8,9-hexahydro-1H-cyclopenta[f]quinoxaline-8-carboxylic acid methyl-phenyl-amide] |  |  |  | 0.42 µM | > 100 µM | 1.6 µM
5 | O=c1[nH]c2cc(Br)c3c(c2[nH]c1=O)CC(NCc1ccccc1)CC3 (stereo not shown) [Example 19, 9-benzylamino-6-bromo-1,4,7,8,9,10-hexahydro-benzo[f]quinoxaline-2,3-dione] | 25 µM | > 100 µM | > 100 µM |  |  | 
6 | O=C(NC1Cc2c([N+](=O)[O-])cc3[nH]c(=O)c(=O)[nH]c3c2C1)C1CCCN1 (stereo not shown) [Example 64, Pyrrolidine-2-carboxylic acid (6-nitro-2,3-dioxo-2,3,4,7,8,9-hexahydro-1H-cyclopenta[f]quinoxalin-8-yl)-amide] |  |  |  | 0.64 µM | > 1 µM | 0.86 µM
7 | O=C(NC1Cc2c([N+](=O)[O-])cc3[nH]c(=O)c(=O)[nH]c3c2C1)c1cccs1 (stereo not shown) [Example 54, Thiophene-2-carboxylic acid (6-nitro-2,3-dioxo-2,3,4,7,8,9-hexahydro-1H-cyclopenta[f]quinoxaline-8-yl)-amide] |  |  |  | 0.05 µM | 0.3 µM | 0.18 µM
8 | CN(C)C1Cc2c([N+](=O)[O-])cc3[nH]c(=O)c(=O)[nH]c3c2C1 (stereo not shown) [Example 90, 8-Dimethylamino-6-nitro-4,7,8,9-tetrahydro-1H-cyclopenta[f]quinoxaline-2,3-dione] |  |  |  | 0.91 µM | 12 µM | 2.6 µM
9 | O=C(O)C1Cc2c([N+](=O)[O-])cc3[nH]c(=O)c(=O)[nH]c3c2C1 (stereo not shown) [Example 78, 6-Nitro-2,3,-dioxo-2,3,4,7,8,9-hexahydro-1H-cyclopenta[f]quinoxaline-8-carboxylic acid] |  |  |  | 0.42 µM | 14 µM | 1.9 µM
10 | O=C(CCc1ccc(O)cc1)NC1CCc2c([N+](=O)[O-])cc3[nH]c(=O)c(=O)[nH]c3c2C1 (stereo not shown) [Example 41, 2-(6-nitro-2,3-dioxo-1,2,3,4,7,8,9,10-octahydrobenzo[f]quinoxaline-9-ylcarbamoyl)ethyl-(4-hydroxy)benzene] |  | > 1 µM |  |  |  | 
11 | O=C(CN(CCO)CCO)NC1Cc2c([N+](=O)[O-])cc3[nH]c(=O)c(=O)[nH]c3c2C1 (stereo not shown) [Example 101, 2-[Bis-(2-hydroxy-ethyl)-amino]-N-(6-nitro-2,3-dioxo-2,3,4,7,8,9-hexahydro-1H-cyclopenta[f]quinoxalin-8-yl)-acetamide] |  |  |  | 1.1 µM |  | 1.4 µM
12 | O=C(Nc1ccccc1)C1Cc2c([N+](=O)[O-])cc3[nH]c(=O)c(=O)[nH]c3c2C1 (stereo not shown) [Example 80, 6-Nitro-2,3,-dioxo-2,3,4,7,8,9-hexahydro-1H-cyclopenta[f]quinoxaline-8-carboxylic acid phenylamide] |  |  |  | 1.6 µM |  | 3.9 µM
13 | CCN(CC)C1Cc2c([N+](=O)[O-])cc3[nH]c(=O)c(=O)[nH]c3c2C1 (stereo not shown) [Example 109, 8-Diethylamino-6-nitro-4,7,8,9,-tetrahydro-1H-cyclopenta[f]quinoxaline-2,3-dione] |  |  |  | 5.1 µM |  | 5.4 µM
